Source: article PMC5054527, “Mechanism of high affinity inhibition of the human urate transporter URAT1” (Scientific Reports, 2016)

What was measured:
human URAT1 = target: T1, human URAT1 (Homo sapiens, UniProt Q96S37); assay: ^3H-RDEA3170 URAT1 membrane binding assay
T1 construct: hURAT1 and rURAT1 are 553 amino acid proteins with 12 transmembrane segments; expressed in transfected cells; host or cells: URAT1-transfected cells (HEK-293T per the transfection section)
T1 sequence (Q96S37 1-553): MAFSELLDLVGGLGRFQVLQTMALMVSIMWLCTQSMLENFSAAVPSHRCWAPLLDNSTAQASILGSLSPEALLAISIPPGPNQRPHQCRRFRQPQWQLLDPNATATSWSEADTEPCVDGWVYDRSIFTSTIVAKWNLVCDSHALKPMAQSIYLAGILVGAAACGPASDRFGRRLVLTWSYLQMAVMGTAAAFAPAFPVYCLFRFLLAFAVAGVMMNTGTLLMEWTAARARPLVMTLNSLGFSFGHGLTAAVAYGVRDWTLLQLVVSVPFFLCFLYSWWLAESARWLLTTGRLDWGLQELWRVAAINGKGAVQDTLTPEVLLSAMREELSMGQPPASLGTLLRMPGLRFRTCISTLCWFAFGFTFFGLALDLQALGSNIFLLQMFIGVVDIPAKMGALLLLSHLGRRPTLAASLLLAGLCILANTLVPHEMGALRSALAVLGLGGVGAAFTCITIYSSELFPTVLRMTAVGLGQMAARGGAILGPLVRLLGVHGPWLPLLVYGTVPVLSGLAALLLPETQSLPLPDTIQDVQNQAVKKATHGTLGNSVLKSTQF
Experimental: (§1) Membranes were prepared from URAT1-transfected cells. […] Cells were lysed with 100 strokes in a dounce homogenizer using a tight-fitting “B” stem. Lysates were transferred to 1.5 ml Eppendorf tubes and centrifuged at 250 rcf for 5 minutes at 2 °C, and supernatants were transferred to fresh tubes and centrifuged again at 18,000 rcf for 20 minutes at 2 °C. The pellets (membrane fractions) were resuspended in 1 ml of ice-cold binding buffer containing protease inhibitors and frozen at −80 °C. Protein was measured using the Bio-Rad protein assay dye reagent concentrate.
(§2) To initiate binding, membranes at 2.5 μg total protein were incubated with ^3H-RDEA3170 for 30 minutes at room temperature. […] The plates were then subjected to scintillation counting. All samples were assayed in triplicate.

rat URAT1 = target: T2, rat URAT1 (Rattus norvegicus, UniProt Q3ZAV1); assay: ^3H-RDEA3170 URAT1 membrane binding assay; details: 500 nM ^3H-RDEA3170; membranes from transfected cells
T2 construct: hURAT1 and rURAT1 are 553 amino acid proteins with 12 transmembrane segments; expressed in transfected cells; host or cells: URAT1-transfected cells (HEK-293T per the transfection section)
T2 sequence (Q3ZAV1 whole entry): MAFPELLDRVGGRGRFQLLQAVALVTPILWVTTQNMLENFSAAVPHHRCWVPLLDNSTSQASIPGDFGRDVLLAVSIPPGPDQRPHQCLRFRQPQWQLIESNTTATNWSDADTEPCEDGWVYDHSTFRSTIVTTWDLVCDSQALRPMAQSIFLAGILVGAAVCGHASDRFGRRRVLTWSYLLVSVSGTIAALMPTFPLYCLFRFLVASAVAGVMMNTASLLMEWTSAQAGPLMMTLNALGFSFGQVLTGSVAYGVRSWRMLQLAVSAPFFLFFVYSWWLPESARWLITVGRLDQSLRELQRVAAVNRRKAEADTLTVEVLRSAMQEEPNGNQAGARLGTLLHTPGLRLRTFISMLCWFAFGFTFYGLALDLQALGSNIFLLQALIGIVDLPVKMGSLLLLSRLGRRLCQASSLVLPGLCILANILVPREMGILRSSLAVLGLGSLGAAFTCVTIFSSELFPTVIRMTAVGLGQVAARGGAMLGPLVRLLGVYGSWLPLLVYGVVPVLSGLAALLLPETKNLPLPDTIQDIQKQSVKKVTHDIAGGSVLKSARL
Experimental: as §1, §2

binding of probe to human URAT1 membranes (human URAT1; 500 nM ^3H-RDEA3170, membranes from transfected cells) | binding of probe to rat URAT1 membranes (rat URAT1) | displacement of ^3H-RDEA3170 binding to hURAT1 (human URAT1; human URAT1 membranes, 10 nM ^3H-RDEA3170) | SMILES
binds to human URAT1 | not rat URAT1 |  | CC(C)(Sc1ccncc1-c1ccc(C#N)c2ccccc12)C(=O)O [^3H-RDEA3170, 2-((3-(4-cyanonaphthalen-1-yl)pyrindin-4-yl)thio)-2-methylpropanoic acid]
 |  | displace binding of the probe | CCCN(CCC)S(=O)(=O)c1ccc(C(=O)O)cc1 [probenecid]
